Results as given in patent publication US9301945B2, “Methods for treating inflammatory conditions and states, and cancers by antagonizing NF-κB activation” (Emory University, priority 2011, dated 2016).
Entries after “also recorded” stand apart in the source; their conditions may differ.

Experiments:
[1] = test system: MC3T3 osteoblast precursors; assay: Osteoblast differentiation / mineralization assay with Alizarin Red-S staining; assay type: cell-based, mouse; details: for osteoblast mineralization (calcium deposition, Alizarin Red-S): 200 μM, 17 days of culture, mineralizing medium, no TNFα
Procedure: (§1) The mouse preosteoblastic cell line MC3T3-E1, clone 14 (MC3T3) and the mouse monocytic cell line RAW264.7 were purchased from the Amerimay Type Culture Collection (Manassas, Va.) and cultured as described in, for example, Li et al. (2007) J Bone Miner Res 22(5): 646-655; and Yamaguchi et al. (2009) Int J Mol Med 24(5): 671-675.
For mineralization assays MC3T3 cells were plated in 12-well dishes at a density of 1.0×10^5 cells per well in mineralization medium (α-MEM supplemented with 10% FBS, L-ascorbic acid (100 μg/ml) and 4 mM β-glycerophosphate) as previously described in, for example, Li et al. (2007) J Bone Miner Res 22(5): 646-655; and Sugimoto et al. (2000) Int J Mol Med 5(5): 515-520. Strontium ranelate, sodium ranelate or strontium chloride were added at the indicated doses and cells replenished with fresh medium every 3 days. At 17-18 days of culture, cells were rinsed with PBS and calcium deposition was visualized by fixing the cells in 75% ethanol for 30 minutes at 4° C. followed by staining with Alizarin Red-S (40 mM, pH 6.2) for 30 minutes at room temperature. Excess stain was removed by copious washing with distilled water. Plates were imaged using a flatbed smayner (Epson Perfection 1660 Photo).
The mechanism by which strontium ranelate promotes osteoblast differentiation was investigated using an in vitro model. The in-vitro model used to investigate utilizes the MC3T3 mouse pre-osteoblast cell line that differentiates spontaneously into active osteoblasts within 21 days of culture in medium containing ascorbic acid and β-glycerophosphate (mineralizing medium).

[2] = test system: RANKL-induced NF-κB activation in RAW264.7 osteoclast precursors; assay: NF-κB luciferase reporter assay in RAW264.7 cells stimulated with RANKL; assay type: cell-based, mouse; details: RANKL 30 ng/ml, dose range 1 to 1000 μM, 24 h
Source text: (§2) The NF-κB responsive reporter pNF-κB-Luc (BD Biosciences) and the Smad responsive reporter pGL3-Smad were used as previously described by in, for example, Li et al. (2007) J Bone Miner Res 22(5): 646-65. Briefly, reporter plasmids were transfected into MC3T3 or RAW264.7 cells (1×10^5 cells/well) using Lipofectamine 2000 reagent (Invitrogen) in α-MEM without FBS and antibiotics. Five hours later the medium was changed to α-MEM containing 10% FBS plus antibiotics and MC3T3 cells treated with TNFα (1 or 10 ng/ml as indicated) or RAW264.7 cells treated with RANKL (30 ng/ml) to stimulate NF-κB activity. In some experiments, Smad activity was induced in MC3T3 cells using TGFβ (1 ng/ml). Strontium ranelate, sodium ranelate or strontium chloride were added at the indicated doses. Cells were extracted with passive lysis buffer (Promega Corporation, Madison Wis.) 24 hours later, and luciferase activity was measured using the Luciferase Assay System of Promega, on a microplate luminometer (Turner Designs, Sunnyvale, Calif., USA).
See Caudrillier et al. (2010) Mol Pharmacol 78(4):569-576.

[3] = test system: TNFα-induced NF-κB activation in MC3T3 osteoblast precursors; assay: NF-κB luciferase reporter assay in MC3T3 cells stimulated with TNFα; assay type: cell-based, mouse; details: 24 h
Source text: as §2
A major mechanism by which TNFα mediates its suppressive action on osteoblasts is through NF-κB activation. See Li et al. (2007) J Bone Miner Res 22(5): 646-655; and Nanes (2003) Gene 321: 1-15.

[4] = test system: RAW264.7 osteoclast precursors; assay: Osteoclastogenesis assay with TRAP staining; assay type: cell-based, mouse; details: RANKL 30 ng/ml, 7 days
Procedure: as §1
RAW264.7 cells were cultured in 96-well plates in α-MEM supplemented with 10% FBS and 100 IU/ml penicillin, and 100 μg/ml streptomycin at a density of 1×10^4 cells/well. Cells were cultured for 6 days with RANKL ([…]) pre-incubated for 10 minutes with crosslinking anti-poly-histidine antibody (2.5 μg/ml), to induce osteoclast formation. Strontium ranelate, sodium ranelate or strontium chloride were added at the indicated doses. After 6 days of culture, the cells were fixed and stained for TRAP, a specific maker of the osteoclast phenotype, using a leukocyte acid phosphatase kit. TRAP+ cells with three or more nuclei were defined as osteoclasts and were quantitated under light microscopy, and normalized for cell size based on number of nuclei. Five wells per group were averaged. Representative wells were photographed under bright field microscopy using a Nikon Eclipse TE2000-S inverted microscope equipped with a digital camera (QImaging Corp., Burnaby, BC, Mayada).
To establish an in vitro osteoclastogenesis model suitable for investigation of strontium ranelate activity, the monocytic cell line RAW 264.7 was employed and differentiated into osteoclasts by addition of the key osteoclastogenic cytokine RANKL was induced. The effect of strontium ranelate on osteoclast differentiation was tested over a dose range from 1 μM to 200 μM and cultures were stained with TRAP 7 days later and osteoclast formation quantitated.

[5] = test system: TGFβ-induced Smad activation in MC3T3 cells; assay: Smad luciferase reporter assay in MC3T3 cells (TGFβ with or without TNFα); assay type: cell-based, mouse; details: 24 h; for direct effect on basal Smad activity: 500 μM; for effect on TNFα suppression of TGFβ-induced Smad activity: TGFβ 1 ng/ml, TNFα 1 ng/ml, concentrations of 100 μM and above
Source text: as §2
TGFβ is a potent early osteoblast precursor commitment and recruitment factor. See, e.g., See Janssens et al. (2005) Endocr Rev 26(6): 743-774; and Tang et al. (2009) Nat Med 15(7): 757-765. It has been reported that TNFα antagonizes TGFβ-induced Smad signaling in osteoblast precursors (see, e.g., Li et al. (2007) J Bone Miner Res 22(5): 646-655) and consequently investigated whether strontium ranelate may alleviate TNFα-induced suppression of TGFβ-induced Smad signaling in preosteoblasts. MC3T3 cells were transiently transfected with a Smad responsive luciferase reporter and Smad-induced transcription quantitated following stimulation by TGFβ.

[6] = test system: postmenopausal women; details: clinical trials; cited from earlier work
[7] = test system: NF-κB nuclear translocation; details: reported by Caudrillier et al. (2010); cited from earlier work
[8] = in vitro osteoblast differentiation and mineralization assays

Compound | osteoblast mineralization (calcium deposition, Alizarin Red-S) [1] | RANKL-induced NF-κB activity (luciferase) [2] | TNFα-induced NF-κB activity (luciferase) ([3]; TNFα 1 ng/ml, 200 μM) | RANKL-induced osteoclast formation (TRAP+ multinucleated cells) ([4]; 10 or 100 μM) | direct effect on basal Smad activity [5] | effect on TNFα suppression of TGFβ-induced Smad activity [5] | effect on TNFα suppression of basal mineralization ([1]; TNFα 5 ng/ml, 10 μM) | mineralization relative to basal levels in presence of TNFα ([1]; TNFα 5 ng/ml, 100 and 200 μM) | lowest dose achieving significant biological activities [1, 8] [μM] | saturating dose [1, 8] [µM] | RANKL-induced NF-κB activity (luciferase) ([2]; listed as Strontium ranelate) | bone loss [6] | fracture risk [6] | RANKL-induced NF-κB nuclear translocation [7] | TNFα-induced NF-κB activity (luciferase) ([3]; high TNFα 10 ng/ml, dose range 1 to 1000 μM) | TNFα-induced NF-κB activity (luciferase) ([3]; low TNFα 1 ng/ml, dose range 1 to 1000 μM) | RANKL-induced osteoclast formation (TRAP+ multinucleated cells) ([4]; 1 μM)
[Cl-].[Cl-].[Sr+2] [strontium chloride] | no stimulatory effects on osteoblast mineralization | no significant effect; also recorded: failed to suppress NF-κB activity | completely ineffective | neither strontium chloride nor sodium ranelate had any effect on osteoclast formation |  |  |  |  |  |  |  |  |  |  |  |  | 
N#Cc1c(N(CC(=O)[O-])CC(=O)[O-])sc(C(=O)[O-])c1CC(=O)[O-].[Sr+2].[Sr+2] [strontium ranelate, distrontium salt of 2-[N,N-di(carboxymethyl)amino]-3-cyano-4-carboxymethylthiophene-5-carboxylic acid] | promote a robust osteoblast mineralization; also recorded: robust enhancement in mineralization | potently antagonize RANKL-induced NF-κB activation | significantly suppressed TNFα-induced NF-κB activity | potently suppresses osteoclast formation at both doses | no direct effects on Smad activity | significantly alleviates the suppressive effect of TNFα on TGFβ-induced Smad activation | completely reversed the suppressive effect of TNFα on basal mineralization | potently augmented mineralization over basal levels | 1 | 100 | dose-dependently and significantly blunted RANKL-induced NF-κB activity | protect against bone loss | reduce fracture risk | antagonize RANKL-induced NF-κB nuclear translocation | dose dependently suppressed TNFα-induced NF-κB activity | dose dependently suppressed TNFα-induced NF-κB activity | significantly suppressed
N#Cc1c(N(CC(=O)[O-])CC(=O)[O-])sc(C(=O)[O-])c1CC(=O)[O-].[Na+].[Na+].[Na+].[Na+] [sodium ranelate] | no stimulatory effects on osteoblast mineralization |  | completely ineffective | neither strontium chloride nor sodium ranelate had any effect on osteoclast formation | no direct effect on basal Smad activity | significantly relieved the suppressive effect of TNFα on TGFβ-induced Smad activity |  |  |  |  |  |  |  |  |  |  | 
